Assay results as given in article PMC5253108 (European journal of medicinal chemistry, 2016).

Experiments:
HepG2 liver cells = test: In vitro cytotoxicity, Cell-Titer Glo viability, HepG2; assay type: cell-based; conditions: 48 hours
[1] = test system: BEAS2B lung epithelial cells; test: In vitro cytotoxicity, Cell-Titer Glo viability, BEAS2B; assay type: cell-based; conditions: 48 hours
HEK293 kidney cells = assay type: cell-based; conditions: 48 hours, Cell-Titer Glo
[2] = In vitro liver microsomal stability; assay type: in vitro ADME, mouse
Swiss Webster mice = test: Rotarod assay of sensorimotor coordination in mice; conditions: for sensorimotor impairment on rotarod: 40 mg/kg i.p., Swiss Webster mice, 10, 30 and 60 min

Compound | Toxicity in HEPG2 (Liver) LD50 (HepG2 liver cells) | Toxicity in BEAS 2B (Lung) LD50 [1] | Toxicity in HEK293 (Kidney) LD50 (HEK293 kidney cells) | loss at 1 h in mouse liver microsomes [2] | sensorimotor impairment on rotarod (Swiss Webster mice) | metabolically converted after one hour ([2]; after one hour, corresponds to mouse liver microsome values of Table 1) | toxicity in HEK293 cells (HEK293 kidney cells) | sensorimotor impairment on rotarod, positive control (Swiss Webster mice; 5 mg/kg i.p., Swiss Webster mice)
[2H]C([2H])([2H])Oc1ccc2c(c1)C(=O)N1CCC[C@H]1c1c(C(=O)OCC)ncn1-2 [Compound 5a] | >400 µM | >400 µM | >400 µM | less than 20% | – | – | – | –
CCOC(=O)c1ncn2c1[C@@H]1CCCN1C(=O)c1cc(O)ccc1-2 [Compound 6] | >400 µM | >400 µM | – | less than 20% | did not induce sensorimotor impairment | – | – | –
[2H]C([2H])([2H])Oc1ccc2c(c1)C(=O)N1CCC[C@H]1c1c(C(=O)OC(C)(C)C)ncn1-2 [Compound 7a] | >400 µM | >200 µM | >100 µM | – | – | – | – | –
CC(C)(C)OC(=O)c1ncn2c1[C@@H]1CCCN1C(=O)c1cc(O)ccc1-2 [Compound 8] | >400 µM | >400 µM | – | – | – | – | – | –
[2H]C([2H])([2H])Oc1ccc2c(c1)C(=O)N1CCC[C@H]1c1c(C(=O)O)ncn1-2 [Compound 9a] | >400 µM | >400 µM | >400 µM | less than 20% | did not induce sensorimotor impairment | – | – | –
COC(=O)c1ncn2c1[C@@H]1CCCN1C(=O)c1cc(OC)ccc1-2 [Compound 10, (S)-Methyl-7-methoxy-9-oxo-11,12,13,13a-tetrahydro-9H-benzo[e]imidazo[5,1-c]pyrrolo[1,2-a][1,4]diazepine-1-carboxylate] | >400 µM | >400 µM | >400 µM | – | did not induce any sensorimotor impairment | 30% | – | –
CNC(=O)c1ncn2c1[C@@H]1CCCN1C(=O)c1cc(OC)ccc1-2 [Compound 15] | >400 µM | >400 µM | >100 µM | – | most severe motor impairment | – | – | –
[2H]C([2H])([2H])Oc1ccc2c(c1)C(=O)N1CCC[C@H]1c1c(C(=O)NC)ncn1-2 [Compound 15a] | >400 µM | >400 µM | >100 µM | – | – | – | – | –
CCNC(=O)c1ncn2c1[C@@H]1CCCN1C(=O)c1cc(OC)ccc1-2 [Compound 17] | >400 µM | >400 µM | >400 µM | – | – | – | – | –
[2H]C([2H])([2H])Oc1ccc2c(c1)C(=O)N1CCC[C@H]1c1c(C(=O)NCC)ncn1-2 [Compound 17a] | >400 µM | – | – | less than 20% | did not induce sensorimotor impairment | – | – | –
COc1ccc2c(c1)C(=O)N1CCC[C@H]1c1c(C(=O)NC(C)(C)C)ncn1-2 [Compound 18] | >400 µM | >400 µM | >200 µM | – | – | – | – | –
[2H]C([2H])([2H])Oc1ccc2c(c1)C(=O)N1CCC[C@H]1c1c(C(=O)NC(C)(C)C)ncn1-2 [Compound 18a] | >400 µM | – | – | – | most severe motor impairment | – | – | –
[2H]C([2H])([2H])Oc1ccc2c(c1)C(=O)N1CCC[C@H]1c1c(C(=O)NC3CC3)ncn1-2 [Compound 19a] | >400 µM | – | – | less than 20% | – | – | some toxicity | –
CN1C(=O)CN=C(c2ccccc2)c2cc(Cl)ccc21 [diazepam, reference compound] | – | – | – | – | – | – | – | greatest impairment of sensorimotor steadiness at 10 minutes
